Measured values published in article PMC11904993, “Humanized Candida and NanoBiT Assays Expedite Discovery of Bdf1 Bromodomain Inhibitors With Antifungal Potential” (Advanced Science, 2025).
Where “and” joins values, the source holds several entries; their conditions need not be identical. Identical values can stand only once. *1 amine or outer side, *2 acyl side, *3 side chain or, on linkers, in order; H or OH if unused. Where a SMILES comes first, the peptide text is derived from it. Bridges are numbered along the chain shown (N, C = ends). [ ]: non-standard residue; d: D form. The star is where a group is joined. pTerphenylCO(4''-OnC5H11) = CCCCCOc1ccc(-c2ccc(-c3ccc(C(=O)*)cc3)cc2)cc1; Orn(4R-OH,5R-OH) = O=C([C@H](C[C@@H](O)[C@@H](O)N[*:3])N[*:1])[*:2]; hTyr(3S-OH,4S-OH) = N[C@H](C(=O)O)[C@H](O)[C@@H](O)c1ccc(O)cc1; Pro(3S-OH,4S-Me) = C[C@H]1CN[C@H](C(=O)O)[C@H]1O; Hyp = O=C(O)[C@@H]1C[C@@H](O)CN1

Assays:
[1] = system: C. glabrata strains expressing WT and mutant Bdf1; assay: Growth inhibition in liquid media, C. glabrata lab strains; settings: Exp 1-3; for %Growth: 50 µM, WT BDF1-flag; for OD at 600 nm: Figure S4B
Method: (§2) Growth on Liquid Media with C. glabrata Lab Strains: Cells were grown at 30 °C in SC+M+C‐U medium (SC medium with 5 mM methionine, 0.25 mM cysteine, without uracil) to an OD600 of 0.5–0.8. […] Plates were incubated at 30 °C and OD600 was measured using a Multiskan FC Microplate Photometer (Thermo Fisher).

[2] = system: C. glabrata strains (WT, pdr1∆ or PDR1 rescue); assay: Growth assays to assess compound efflux; assay type: cell-based; settings: for growth relative to Solvent = 100 (Figure S10B): compound 50 µM, three replicates
Method: Cells from a single colony were diluted in 0.85% NaCl before being counted using a Neubauer chamber. […] The effect of fluconazole was tested by titration on these strains under similar conditions.

[3] = system: C. glabrata expressing humanized Bdf1 (Brd4 BDs); assay: Growth inhibition in liquid media, humanized C. glabrata strains; settings: 50 µM, Exp 1-3
Method: as §2

CgBdf1 BD1 = CgBdf1 BD1 (Candida glabrata, UniProt Q6FWV7); assay: HTRF assay, inhibition of H4ac4 peptide binding; set-up: species or system C. glabrata; settings: Fig 1D/2A original data; single experiments Exp1-3
CgBdf1 BD2 = CgBdf1 BD2 (Candida glabrata, UniProt Q6FWV7); assay: biochemical; assay type: binding, C. glabrata; settings: Fig 1D/2A original data; single experiments Exp1-3
[4] = system: C. albicans expressing WT Bdf1; assay: Galleria fungal infection model, WT strain; assay type: in vivo, Galleria mellonella; set-up: key to survival event of one larva (1 = death 0 = no death): 1 = death; 0 = no death; settings: Figure 6B
Method: (§1) Galleria mellonella larvae were purchased from Decathlon (La Tronche, France). They were selected in the late larval stages weighing between 300 and 400 mg. Groups of 10 larvae were injected into the right or left last pro‐leg with 10 µl of either PBS, C. albicans suspensions or antifungal drug using an insulin syringe (BDUltra‐Fine 0.3 ml). C. albicans suspensions of the WT and humanized Bdf1 strains were adjusted to 10^6 cells larva^−1. Antifungal drugs (anidulafungin 5 mg kg^−1 or I‐BET726 66 or 44 mg kg^−1) were injected once 30 min before fungal infection. An infected control group received the C. albicans inoculum and the solvent of the drug. A non‐infected control group received only PBS. After inoculation, larvae were placed in Petri dishes and incubated in the dark at 37 °C. The larvae were monitored for 5 days, and survival outcome was determined. For experiments performed at the lower (44 mg kg^−1) dose of IBET‐726, the difference in protection against infection with humanized versus WT C. albicans strains was more evident using the survival data at 40 h rather than at 100 h post‐infection. Larvae were considered dead when no response was observed following touch. All experiments were performed at least 3 times independently. The significance of survival was assessed by a Log‐rank (Mantel‐Cox) test in GraphPad Prism 10.

[5] = system: C. albicans expressing humanized Bdf1; assay: Galleria fungal infection model, humanized strain; assay type: in vivo, Galleria mellonella; set-up: key to survival event of one larva (1 = death 0 = no death): 1 = death; 0 = no death; settings: Figure 6C; Bdf1-hBD* strain; Time 8 hours
Method: as §1

[6] = target: S. cerevisiae histone H2A variant H2A.Z fused to LgBiT (UniProt Q12692); assay: NanoBiT assay in live S. cerevisiae cells; settings: parent: est. 1.0; read off a plot

CgBdf1 BD1, sequence (Q6FWV7 entry or part of it): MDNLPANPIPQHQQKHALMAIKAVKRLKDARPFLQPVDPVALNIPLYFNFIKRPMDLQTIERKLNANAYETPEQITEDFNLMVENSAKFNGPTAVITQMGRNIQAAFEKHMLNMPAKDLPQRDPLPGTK
CgBdf1 BD2, sequence (Q6FWV7 entry or part of it): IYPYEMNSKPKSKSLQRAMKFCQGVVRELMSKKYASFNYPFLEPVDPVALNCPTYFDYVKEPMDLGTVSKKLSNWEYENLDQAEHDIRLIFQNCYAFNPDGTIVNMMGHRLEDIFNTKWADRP

In the case of Cc1sc2c(c1C)C(c1ccc(Cl)cc1)=N[C@@H](CC(=O)OC(C)(C)C)c1nnc(C)n1-2 [JQ1, reference compound], the “%Growth” value ([1]; Fig 3D) is reported as 112.7% and 106.1% and 114.4%, the “%Growth” value ([1]; Fig 3E) is reported as 113% and 106% and 114% and the “OD at 600 nm” value ([1]; WT BDF1 strain) is reported as 0.392 and 0.386 and 0.385. The “OD at 600 nm” value ([1]; bdf1-bd1Δ strain) was 0.328 and 0.347 and 0.329, the “OD at 600 nm” value ([1]; bdf1-bd2Δ strain) was 0.195 and 0.225 and 0.183 and the “activity against PDR1 deletion strain versus WT/rescue” value ([2]; 50 µM (I-BET726 1 µM), 20 h) was “increased efficacy”. For the same compound, the “%Growth” value ([3]; Fig 3D, humanized BDF1-flag) was 46.0% and 39.6% and 43.2%, the “%Growth” value ([3]; Fig 3E, BDF1-hBD1-flag) was 83% and 74% and 78% and the “%Growth” value ([3]; Fig 3E, BDF1-hBD2-flag) was 91% and 86%. For the same compound, the “%Growth” value ([3]; Fig 3E, humanized BDF1-flag) was 46% and 40% and 43%, the “pIC50 CgBD1” value (CgBdf1 BD1) was 5.18 and 5.05 and 5.03 and the “pIC50 CgBD2” value (CgBdf1 BD2) was 6.15 and 6.10 and 6.13.
With COc1cc(OC)c2c(=O)[nH]c(-c3cc(C)c(OCCO)c(C)c3)nc2c1 [RVX208] the “%Growth” value ([1]; Fig 3E) was 91% and 96%, the “growth relative to Solvent = 100 (Figure S10B)” value ([2]; PDR1 Rescue) was 70.1855 and 71.3614 and 82.784 and the “growth relative to Solvent = 100 (Figure S10B)” value ([2]; WT) was 80.2726 and 64.9447 and 62.8512. For the same compound, the “growth relative to Solvent = 100 (Figure S10B)” value ([2]; pdr1∆) was 66.409 and 64.9859 and 67.3918, the “%Growth” value ([3]; Fig 3E, BDF1-hBD1-flag) was 95% and 91% and 88% and the “%Growth” value ([3]; Fig 3E, BDF1-hBD2-flag) was 94% and 82% and 93%. For the same compound, the “%Growth” value ([3]; Fig 3E, humanized BDF1-flag) was 80% and 88% and 77%.
With CCCCCOc1ccc(-c2ccc(-c3ccc(C(=O)N[C@H]4C[C@@H](O)[C@@H](O)NC(=O)[C@@H]5[C@@H](O)[C@@H](C)CN5C(=O)[C@H]([C@@H](C)O)NC(=O)[C@H]([C@H](O)[C@@H](O)c5ccc(O)cc5)NC(=O)[C@@H]5C[C@@H](O)CN5C(=O)[C@H]([C@@H](C)O)NC4=O)cc3)cc2)cc1 [anidula-fungin] ({pTerphenylCO(4''-OnC5H11)}-[Orn(4R-OH,5R-OH)]T[Hyp][hTyr(3S-OH,4S-OH)]T[Pro(3S-OH,4S-Me)]; lactam 1-C) the “survival event of one larva (1 = death 0 = no death)” value ([4]; Time 10 hours) was 1, the “survival event of one larva (1 = death 0 = no death)” value ([4]; Time 35 hours) was 1 and the “survival event of one larva (1 = death 0 = no death)” value ([4]; Time 50 hours) was 1.
CCCCCOc1ccc(-c2ccc(-c3ccc(C(=O)N[C@H]4C[C@@H](O)[C@@H](O)NC(=O)[C@@H]5[C@@H](O)[C@@H](C)CN5C(=O)[C@H]([C@@H](C)O)NC(=O)[C@H]([C@H](O)[C@@H](O)c5ccc(O)cc5)NC(=O)[C@@H]5C[C@@H](O)CN5C(=O)[C@H]([C@@H](C)O)NC4=O)cc3)cc2)cc1 [anidulafungin] ({pTerphenylCO(4''-OnC5H11)}-[Orn(4R-OH,5R-OH)]T[Hyp][hTyr(3S-OH,4S-OH)]T[Pro(3S-OH,4S-Me)]; lactam 1-C) was tested, and the “survival event of one larva (1 = death 0 = no death)” value [5] was 1.
For “C. glabrata Bdf1-SmBiT expressed in S. cerevisiae Y166F; Y343F”, the ratio to parent [6] was 0.27.
